Read-outs that look alike come from different tables or passages of the source.
Columns and labels:
Assay in all cases: KinomeScan kinase panel, single concentration 10 µM
Assay type in all cases: binding
KinomeScan kinase panel [1] = target: T1, KinomeScan kinase panel (Homo sapiens, UniProt Q96PY6); settings: NEK1, 10 µM; read-out: score (%)
T1 construct: purchased DiscoveRx (KinomeScan)
T1 sequence (Q96PY6 1-1258): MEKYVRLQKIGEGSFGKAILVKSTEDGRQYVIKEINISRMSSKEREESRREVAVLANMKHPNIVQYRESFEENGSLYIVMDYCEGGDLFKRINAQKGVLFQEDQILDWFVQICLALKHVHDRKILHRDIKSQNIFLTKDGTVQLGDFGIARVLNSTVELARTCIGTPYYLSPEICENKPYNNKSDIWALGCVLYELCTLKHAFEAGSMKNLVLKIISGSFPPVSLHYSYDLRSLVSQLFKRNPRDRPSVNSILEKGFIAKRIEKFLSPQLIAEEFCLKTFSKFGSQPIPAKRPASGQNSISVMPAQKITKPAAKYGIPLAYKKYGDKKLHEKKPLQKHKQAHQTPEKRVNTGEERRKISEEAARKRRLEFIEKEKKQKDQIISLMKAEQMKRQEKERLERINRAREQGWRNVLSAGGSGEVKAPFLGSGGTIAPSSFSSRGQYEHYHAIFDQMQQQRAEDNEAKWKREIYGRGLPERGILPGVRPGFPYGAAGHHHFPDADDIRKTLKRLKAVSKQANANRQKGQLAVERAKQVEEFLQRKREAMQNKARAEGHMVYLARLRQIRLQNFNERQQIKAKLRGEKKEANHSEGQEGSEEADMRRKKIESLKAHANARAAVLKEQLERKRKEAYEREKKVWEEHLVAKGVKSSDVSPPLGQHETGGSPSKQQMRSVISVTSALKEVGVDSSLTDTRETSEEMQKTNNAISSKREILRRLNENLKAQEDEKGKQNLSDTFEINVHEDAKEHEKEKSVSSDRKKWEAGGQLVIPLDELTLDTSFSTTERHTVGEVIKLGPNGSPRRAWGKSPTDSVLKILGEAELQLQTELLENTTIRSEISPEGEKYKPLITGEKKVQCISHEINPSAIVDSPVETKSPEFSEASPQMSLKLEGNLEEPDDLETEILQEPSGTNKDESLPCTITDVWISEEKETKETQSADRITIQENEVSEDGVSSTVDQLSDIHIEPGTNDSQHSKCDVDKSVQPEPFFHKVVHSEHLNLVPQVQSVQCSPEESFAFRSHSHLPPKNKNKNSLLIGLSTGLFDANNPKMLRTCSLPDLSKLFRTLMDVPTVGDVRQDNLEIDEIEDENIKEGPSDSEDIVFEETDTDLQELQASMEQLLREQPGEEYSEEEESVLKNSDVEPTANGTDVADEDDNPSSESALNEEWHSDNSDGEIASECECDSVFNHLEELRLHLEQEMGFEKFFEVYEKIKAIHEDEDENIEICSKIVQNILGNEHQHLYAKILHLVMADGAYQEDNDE

KinomeScan kinase panel [2] = target: T2, KinomeScan kinase panel (Homo sapiens, UniProt P00519); settings: read-out: score (%)
T2 construct: purchased DiscoveRx (KinomeScan)

KinomeScan kinase panel [3] = target: T3, KinomeScan kinase panel (Homo sapiens, UniProt Q13546); settings: read-out: score (%)
T3 construct: purchased DiscoveRx (KinomeScan)
T3 sequence (Q13546 1-671): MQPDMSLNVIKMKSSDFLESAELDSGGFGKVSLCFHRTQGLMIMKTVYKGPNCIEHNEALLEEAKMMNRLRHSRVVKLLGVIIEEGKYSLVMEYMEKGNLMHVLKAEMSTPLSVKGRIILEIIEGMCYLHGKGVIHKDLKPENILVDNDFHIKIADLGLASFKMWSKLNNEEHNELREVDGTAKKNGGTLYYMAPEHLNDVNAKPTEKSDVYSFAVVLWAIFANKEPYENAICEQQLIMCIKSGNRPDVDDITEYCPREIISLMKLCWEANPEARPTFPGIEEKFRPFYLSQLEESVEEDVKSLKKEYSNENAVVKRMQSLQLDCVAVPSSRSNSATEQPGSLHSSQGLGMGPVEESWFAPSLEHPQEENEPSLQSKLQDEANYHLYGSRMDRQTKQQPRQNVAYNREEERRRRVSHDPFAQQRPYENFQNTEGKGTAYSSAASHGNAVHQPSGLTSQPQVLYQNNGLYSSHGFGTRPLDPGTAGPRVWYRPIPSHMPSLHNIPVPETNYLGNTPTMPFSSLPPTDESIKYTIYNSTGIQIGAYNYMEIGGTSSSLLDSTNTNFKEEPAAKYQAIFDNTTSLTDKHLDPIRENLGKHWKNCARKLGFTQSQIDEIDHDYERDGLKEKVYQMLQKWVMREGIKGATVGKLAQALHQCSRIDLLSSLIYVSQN

KinomeScan kinase panel [4] = target: T4, KinomeScan kinase panel (Homo sapiens, UniProt P36894); settings: BMPR1A, 10 µM; read-out: score (%)
T4 construct: purchased DiscoveRx (KinomeScan)

KinomeScan kinase panel [5] = target: T5, KinomeScan kinase panel (Homo sapiens, UniProt Q9P286); settings: read-out: score (%)
T5 construct: purchased DiscoveRx (KinomeScan)

KinomeScan kinase panel [6] = target: T6, KinomeScan kinase panel (Homo sapiens, UniProt P37023); settings: ACVRL1, 10 µM; read-out: score (%)
T6 construct: purchased DiscoveRx (KinomeScan)

KinomeScan kinase panel [7] = target: T7, KinomeScan kinase panel (Homo sapiens, UniProt Q9BXA7); settings: read-out: score (%)
T7 construct: purchased DiscoveRx (KinomeScan)
T7 sequence (Q9BXA7 1-367): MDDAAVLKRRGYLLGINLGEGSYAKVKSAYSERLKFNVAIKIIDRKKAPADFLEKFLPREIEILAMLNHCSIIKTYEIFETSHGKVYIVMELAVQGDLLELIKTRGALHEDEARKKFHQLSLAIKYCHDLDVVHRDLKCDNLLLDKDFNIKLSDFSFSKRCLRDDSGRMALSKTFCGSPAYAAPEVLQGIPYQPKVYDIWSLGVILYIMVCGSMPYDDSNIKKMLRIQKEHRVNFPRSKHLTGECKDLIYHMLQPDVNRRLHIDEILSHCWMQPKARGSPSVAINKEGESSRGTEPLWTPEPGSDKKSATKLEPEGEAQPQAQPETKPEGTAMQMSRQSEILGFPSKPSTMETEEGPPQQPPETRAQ

KinomeScan kinase panel [8] = target: T8, KinomeScan kinase panel (Homo sapiens, UniProt Q15375); settings: EPHA7, 10 µM; read-out: score (%)
T8 construct: purchased DiscoveRx (KinomeScan)
T8 sequence (Q15375 28-998): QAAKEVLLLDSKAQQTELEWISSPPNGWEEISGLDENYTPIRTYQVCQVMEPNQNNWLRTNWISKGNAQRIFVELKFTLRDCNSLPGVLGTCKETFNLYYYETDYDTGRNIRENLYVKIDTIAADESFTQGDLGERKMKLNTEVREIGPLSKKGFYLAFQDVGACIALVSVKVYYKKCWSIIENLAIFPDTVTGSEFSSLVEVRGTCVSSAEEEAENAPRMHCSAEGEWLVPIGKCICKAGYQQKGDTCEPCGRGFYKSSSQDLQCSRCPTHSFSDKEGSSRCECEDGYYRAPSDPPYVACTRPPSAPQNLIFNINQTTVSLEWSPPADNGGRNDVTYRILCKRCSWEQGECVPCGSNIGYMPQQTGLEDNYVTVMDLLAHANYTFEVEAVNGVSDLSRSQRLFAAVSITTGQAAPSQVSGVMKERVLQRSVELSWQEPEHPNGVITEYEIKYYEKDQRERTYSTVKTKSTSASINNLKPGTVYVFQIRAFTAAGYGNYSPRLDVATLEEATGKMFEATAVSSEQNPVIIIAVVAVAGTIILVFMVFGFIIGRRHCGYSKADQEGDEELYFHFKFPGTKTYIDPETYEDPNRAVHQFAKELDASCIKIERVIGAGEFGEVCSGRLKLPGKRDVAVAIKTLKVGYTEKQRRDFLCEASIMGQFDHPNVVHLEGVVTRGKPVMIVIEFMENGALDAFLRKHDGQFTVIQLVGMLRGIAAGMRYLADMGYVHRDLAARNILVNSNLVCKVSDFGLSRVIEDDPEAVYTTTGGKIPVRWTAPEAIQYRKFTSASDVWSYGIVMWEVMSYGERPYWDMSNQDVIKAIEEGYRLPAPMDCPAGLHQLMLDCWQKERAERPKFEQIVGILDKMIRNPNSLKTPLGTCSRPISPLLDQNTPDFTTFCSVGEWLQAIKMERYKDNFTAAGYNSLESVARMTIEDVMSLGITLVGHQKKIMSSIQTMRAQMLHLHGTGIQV

T5 sequence (Q9P286 whole entry): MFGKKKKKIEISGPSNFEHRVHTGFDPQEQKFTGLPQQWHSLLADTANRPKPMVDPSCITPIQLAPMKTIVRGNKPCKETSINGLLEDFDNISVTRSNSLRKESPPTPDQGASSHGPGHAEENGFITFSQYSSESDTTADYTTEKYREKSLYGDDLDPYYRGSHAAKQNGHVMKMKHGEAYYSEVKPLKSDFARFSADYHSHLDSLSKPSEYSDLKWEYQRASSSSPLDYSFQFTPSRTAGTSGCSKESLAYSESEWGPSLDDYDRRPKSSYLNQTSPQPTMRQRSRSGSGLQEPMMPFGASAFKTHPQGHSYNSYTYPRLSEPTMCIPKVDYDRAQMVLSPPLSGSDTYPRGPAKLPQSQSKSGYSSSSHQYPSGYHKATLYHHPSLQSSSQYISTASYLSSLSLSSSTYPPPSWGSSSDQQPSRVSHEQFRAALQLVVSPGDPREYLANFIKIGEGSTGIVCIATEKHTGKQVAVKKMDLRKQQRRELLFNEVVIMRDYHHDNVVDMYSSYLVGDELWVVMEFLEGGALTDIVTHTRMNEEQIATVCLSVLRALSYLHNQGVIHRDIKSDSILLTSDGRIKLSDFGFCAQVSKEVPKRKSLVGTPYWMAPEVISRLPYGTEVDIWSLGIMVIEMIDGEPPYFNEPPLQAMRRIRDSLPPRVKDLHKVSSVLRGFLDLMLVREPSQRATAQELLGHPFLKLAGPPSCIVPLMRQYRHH
T4 sequence (P36894 24-532): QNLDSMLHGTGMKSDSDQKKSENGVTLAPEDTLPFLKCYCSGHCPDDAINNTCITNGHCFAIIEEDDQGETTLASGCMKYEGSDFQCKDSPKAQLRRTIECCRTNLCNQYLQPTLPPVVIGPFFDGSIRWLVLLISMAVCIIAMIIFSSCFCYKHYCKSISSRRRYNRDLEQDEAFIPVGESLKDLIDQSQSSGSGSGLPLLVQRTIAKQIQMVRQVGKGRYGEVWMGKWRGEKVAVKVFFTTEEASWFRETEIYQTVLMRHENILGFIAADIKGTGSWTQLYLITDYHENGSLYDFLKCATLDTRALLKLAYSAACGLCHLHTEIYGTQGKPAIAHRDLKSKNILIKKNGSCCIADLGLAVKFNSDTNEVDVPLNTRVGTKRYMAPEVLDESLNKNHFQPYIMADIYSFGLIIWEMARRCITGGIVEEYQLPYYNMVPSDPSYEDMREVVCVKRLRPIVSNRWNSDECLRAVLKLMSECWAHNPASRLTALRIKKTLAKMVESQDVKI
T6 sequence (P37023 22-503): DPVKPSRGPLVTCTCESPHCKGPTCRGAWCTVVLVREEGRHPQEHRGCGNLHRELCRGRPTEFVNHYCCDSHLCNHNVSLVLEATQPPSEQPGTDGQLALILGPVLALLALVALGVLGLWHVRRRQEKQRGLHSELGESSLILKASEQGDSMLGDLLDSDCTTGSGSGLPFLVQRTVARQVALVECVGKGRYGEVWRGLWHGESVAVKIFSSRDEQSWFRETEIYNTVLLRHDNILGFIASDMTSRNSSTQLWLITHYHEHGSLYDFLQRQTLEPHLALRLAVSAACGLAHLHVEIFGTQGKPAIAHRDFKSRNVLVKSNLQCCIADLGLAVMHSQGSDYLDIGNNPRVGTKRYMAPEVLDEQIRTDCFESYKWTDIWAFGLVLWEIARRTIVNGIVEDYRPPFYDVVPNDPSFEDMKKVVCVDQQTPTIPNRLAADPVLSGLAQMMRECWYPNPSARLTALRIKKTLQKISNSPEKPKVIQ
T2 sequence (P00519 whole entry): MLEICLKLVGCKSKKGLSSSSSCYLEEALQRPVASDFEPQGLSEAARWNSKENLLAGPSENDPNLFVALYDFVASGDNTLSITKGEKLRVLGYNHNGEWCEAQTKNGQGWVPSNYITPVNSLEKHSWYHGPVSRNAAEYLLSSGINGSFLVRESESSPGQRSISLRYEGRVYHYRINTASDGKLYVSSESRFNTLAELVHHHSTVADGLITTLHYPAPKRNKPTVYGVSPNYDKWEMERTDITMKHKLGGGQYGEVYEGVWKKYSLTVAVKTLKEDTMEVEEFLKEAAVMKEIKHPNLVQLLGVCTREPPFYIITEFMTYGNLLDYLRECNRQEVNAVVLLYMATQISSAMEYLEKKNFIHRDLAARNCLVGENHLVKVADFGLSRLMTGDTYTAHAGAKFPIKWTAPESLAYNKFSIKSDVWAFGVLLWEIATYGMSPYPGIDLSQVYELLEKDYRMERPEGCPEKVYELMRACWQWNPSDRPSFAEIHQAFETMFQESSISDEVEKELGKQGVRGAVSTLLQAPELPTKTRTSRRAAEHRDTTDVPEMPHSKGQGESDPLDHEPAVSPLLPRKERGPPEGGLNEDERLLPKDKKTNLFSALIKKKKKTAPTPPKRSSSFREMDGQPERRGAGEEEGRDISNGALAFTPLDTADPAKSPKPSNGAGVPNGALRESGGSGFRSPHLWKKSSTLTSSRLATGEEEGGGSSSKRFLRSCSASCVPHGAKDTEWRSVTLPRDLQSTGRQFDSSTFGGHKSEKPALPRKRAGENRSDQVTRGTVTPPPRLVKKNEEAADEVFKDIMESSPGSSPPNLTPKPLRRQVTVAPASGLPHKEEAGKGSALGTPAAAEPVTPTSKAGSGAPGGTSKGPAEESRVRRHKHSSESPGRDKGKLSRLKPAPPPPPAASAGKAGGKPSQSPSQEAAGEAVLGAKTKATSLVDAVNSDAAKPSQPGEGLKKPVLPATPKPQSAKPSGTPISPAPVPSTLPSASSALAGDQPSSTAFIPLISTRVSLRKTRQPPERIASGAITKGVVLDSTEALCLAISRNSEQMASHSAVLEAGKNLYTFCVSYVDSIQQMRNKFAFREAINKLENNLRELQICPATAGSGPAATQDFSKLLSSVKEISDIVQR

Row | remaining binding at 10 µM (KinomeScan kinase panel [5]; PAK7/PAK5, 10 µM) [%] | remaining binding at 10 µM (KinomeScan kinase panel [7]; TSSK1, 10 µM) [%] | Compound | remaining binding at 10 µM (KinomeScan kinase panel [1]) [%] | remaining binding at 10 µM (KinomeScan kinase panel [2]; ABL1-nonphosphorylated, 10 µM) [%] | remaining binding at 10 µM (KinomeScan kinase panel [2]; ABL1-phosphorylated, 10 µM) [%] | remaining binding at 10 µM (KinomeScan kinase panel [3]; kinase RIPK1, 10 µM) [%] | remaining binding at 10 µM (KinomeScan kinase panel [4]) [%] | remaining binding at 10 µM (KinomeScan kinase panel [5]; PAK7, 10 µM) [%] | remaining binding at 10 µM (KinomeScan kinase panel [6]) [%] | remaining binding at 10 µM (KinomeScan kinase panel [7]; kinase TSSK1B, 10 µM) [%] | remaining binding at 10 µM (KinomeScan kinase panel [8]) [%] | remaining binding at 10 µM (KinomeScan kinase panel [2]; ABL1, 10 µM) [%] | remaining binding at 10 µM (KinomeScan kinase panel [3]; RIPK1, 10 µM) [%]
1 |  |  | CCN1CCN(Cc2ccc(NC(=O)c3ccc(C)c(C#Cc4cccnc4)c3)cc2C(F)(F)F)CC1 [XMD15-44] | > 30 | 0 | 0 | 0.05 | > 30 | 83 | > 30 | 92 | 0.55 |  | 
2 | > 30 | > 30 | CCN1CCN(Cc2ccc(NC(=O)c3ccc(C)c(/C=C/c4cnc5[nH]ccc5c4Cl)c3)cc2C(F)(F)F)CC1 [HG-6-63-01, (E)-3-(2-(4-chloro-1H-pyrrolo[2,3-b]pyridin-5-yl)vinyl)-N-(4-((4-ethylpiperazin-1-yl)methyl)-3-(trifluoromethyl)phenyl)-4-methylbenzamide] | > 30 |  |  |  | > 30 |  | > 30 |  | > 30 | 0.3 | 0.05
3 |  |  | CCN1CCN(Cc2ccc(NC(=O)c3ccc(C)c(NC(=O)c4cncc(-c5cccs5)c4)c3)cc2C(F)(F)F)CC1 [ALW-II-41-27] | > 30 |  |  |  | > 30 | > 30 | > 30 | > 30 | > 30 | 0.05 | 0.45
